Assay results reported in PubChem BioAssay AID1963868 (Molecular Pharmacology Branch, DTP, NCI, 2024).
pIC50: −log10 of the molar value. Where “and” joins values, the source holds several entries; their conditions need not be identical. Equal entries are not always repeated.

Test system: KRAS PDC tumor spheroids (HUVEC+MSC), viability
Assay: Anticancer human tumor 254851-301-R-J1-PDC patient-derived colon carcinoma cell line growth inhibition [KRAS2]
Conditions: for pIC50: curve of first compound; for viability, T/C: stronger effect = lower value
Summary of the method: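 Combination screen of spheroid viability in tumor-cell co-cultures with endothelial (HUVEC) and mesenchymal stem cell stroma. Each agent was tested in half-log dilutions, topping at clinical Cmax or at 10 microM without a known Cmax.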

[1] = second compound 0.1 µM, first compound 0.0316 µM
[2] = second compound 0.1 µM, first compound 0.1 µM
[3] = second compound 0.1 µM, first compound 0.316 µM
[4] = second compound 0.1 µM, first compound 1 µM
[5] = second compound 0.1 µM, first compound 3.16 µM
[6] = second compound 0.1 µM, first compound 10 µM
[7] = second compound 0.316 µM, first compound 0.0316 µM
[8] = second compound 0.316 µM, first compound 0.1 µM
[9] = second compound 0.316 µM, first compound 0.316 µM
[10] = second compound 0.316 µM, first compound 1 µM
[11] = second compound 0.316 µM, first compound 3.16 µM
[12] = second compound 0.316 µM, first compound 10 µM
[13] = second compound 1 µM, first compound 0.0316 µM
[14] = second compound 1 µM, first compound 0.1 µM
[15] = second compound 1 µM, first compound 0.316 µM
[16] = second compound 1 µM, first compound 1 µM
[17] = second compound 1 µM, first compound 3.16 µM
[18] = second compound 1 µM, first compound 10 µM
[19] = second compound 3.16 µM, first compound 0.0316 µM
[20] = second compound 3.16 µM, first compound 0.1 µM
[21] = second compound 3.16 µM, first compound 0.316 µM
[22] = second compound 3.16 µM, first compound 1 µM
[23] = second compound 3.16 µM, first compound 3.16 µM
[24] = second compound 3.16 µM, first compound 10 µM
[25] = second compound 10 µM, first compound 0.0316 µM
[26] = second compound 10 µM, first compound 0.1 µM
[27] = second compound 10 µM, first compound 0.316 µM
[28] = second compound 10 µM, first compound 1 µM
[29] = second compound 10 µM, first compound 3.16 µM
[30] = second compound 10 µM, first compound 10 µM
[31] = second compound 0.0316 µM, first compound 0.0316 µM
[32] = second compound 0.0316 µM, first compound 0.1 µM
[33] = second compound 0.0316 µM, first compound 0.316 µM
[34] = second compound 0.0316 µM, first compound 1 µM
[35] = second compound 0.0316 µM, first compound 3.16 µM
[36] = second compound 0.0316 µM, first compound 10 µM
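Note: spheroids exposed to compounds for seven days before readout.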
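Throughout, for viability, T/C: 100% = DMSO vehicle control luminescence of the spheroids.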

COC(=O)c1ccc2c(C(=Nc3ccc(N(C)C(=O)CN4CCN(C)CC4)cc3)c3ccccc3)c(O)[nH]c2c1 + COc1cc2nc(C)nc(NC(C)c3cc(N)cc(C(F)(F)F)c3)c2cc1OC1CCOC1
pIC50 (second compound 0.1 µM): < 5.00 | pIC50 (second compound 0.316 µM): < 5.00 | pIC50 (second compound 1 µM): < 5.00 | pIC50 (second compound 3.16 µM): 5.41 | pIC50 (second compound 10 µM): 5.91 | viability, T/C [1]: 90.9% | viability, T/C [2]: 102% | viability, T/C [3]: 89% | viability, T/C [4]: 85.3% | viability, T/C [5]: 98.7% | viability, T/C [6]: 87% | viability, T/C [7]: 88% | viability, T/C [8]: 95% | viability, T/C [9]: 92.5% | viability, T/C [10]: 86.1% | viability, T/C [11]: 90.2% | viability, T/C [12]: 90.4% | viability, T/C [13]: 86.9% | viability, T/C [14]: 90.5% | viability, T/C [15]: 83.3% | viability, T/C [16]: 77.7% | viability, T/C [17]: 80.1% | viability, T/C [18]: 73% | viability, T/C [19]: 93.2% | viability, T/C [20]: 85.9% | viability, T/C [21]: 88.9% | viability, T/C [22]: 80.2% | viability, T/C [23]: 59.2% | viability, T/C [24]: 6.26% | viability, T/C [25]: 82.7% | viability, T/C [26]: 87% | viability, T/C [27]: 77.8% | viability, T/C [28]: 61.3% | viability, T/C [29]: 1.22% | viability, T/C [30]: 0.29%

CC1OCC2(CCN(c3cnc(Sc4ccnc(N)c4Cl)c(N)n3)CC2)C1N (configuration not stated) + C=CC(=O)N1CCN(c2nc(OCC3CCCN3C)nc3c2CCN(c2cccc4cccc(C)c24)C3)CC1CC#N
pIC50 (second compound 0.0316 µM): < 5.00 | pIC50 (second compound 0.1 µM): < 5.00 | pIC50 (second compound 0.316 µM): < 5.00 | pIC50 (second compound 1 µM): < 5.00 | pIC50 (second compound 3.16 µM): < 5.00 | viability, T/C [31]: 101% | viability, T/C [32]: 99.7% | viability, T/C [33]: 102% | viability, T/C [34]: 85.4% | viability, T/C [35]: 77.2% | viability, T/C [36]: 75.3% | viability, T/C [1]: 115% | viability, T/C [2]: 107% | viability, T/C [3]: 89.3% | viability, T/C [4]: 85.3% | viability, T/C [5]: 77.1% | viability, T/C [6]: 83% | viability, T/C [7]: 89.8% | viability, T/C [8]: 95.6% | viability, T/C [9]: 93.4% | viability, T/C [10]: 84.7% | viability, T/C [11]: 83.4% | viability, T/C [12]: 72.8% | viability, T/C [13]: 59.1% | viability, T/C [14]: 68.1% | viability, T/C [15]: 65.3% | viability, T/C [16]: 69% | viability, T/C [17]: 66.2% | viability, T/C [18]: 64.8% | viability, T/C [19]: 60.1% | viability, T/C [20]: 58.7% | viability, T/C [21]: 59.4% | viability, T/C [22]: 68.5% | viability, T/C [23]: 60.6% | viability, T/C [24]: 58.9%

CC(C)n1nc(-c2ccc3oc(N)nc3c2)c2c(N)ncnc21 + CNCc1ccccc1-c1csc(C(C)Nc2nc(C)nc3cc(OC)c(OC)cc23)c1
pIC50 (second compound 0.1 µM): 7.73 | pIC50 (second compound 0.316 µM): 7.71 | pIC50 (second compound 1 µM): 7.76 | pIC50 (second compound 3.16 µM): 8.22 | pIC50 (second compound 10 µM): > 9.50 | viability, T/C (second compound 0.1 µM, first compound 0.000316 µM): 110% | viability, T/C (second compound 0.1 µM, first compound 0.001 µM): 98.6% | viability, T/C (second compound 0.1 µM, first compound 0.00316 µM): 89.2% | viability, T/C (second compound 0.1 µM, first compound 0.01 µM): 64.8% | viability, T/C [1]: 36.8% | viability, T/C [2]: 23.3% | viability, T/C (second compound 0.316 µM, first compound 0.000316 µM): 96.1% | viability, T/C (second compound 0.316 µM, first compound 0.001 µM): 105% | viability, T/C (second compound 0.316 µM, first compound 0.00316 µM): 82% | viability, T/C (second compound 0.316 µM, first compound 0.01 µM): 73.4% | viability, T/C [7]: 33.8% | viability, T/C [8]: 23.4% | viability, T/C (second compound 1 µM, first compound 0.000316 µM): 88.6% | viability, T/C (second compound 1 µM, first compound 0.001 µM): 95% | viability, T/C (second compound 1 µM, first compound 0.00316 µM): 80.4% | viability, T/C (second compound 1 µM, first compound 0.01 µM): 68% | viability, T/C [13]: 31.4% | viability, T/C [14]: 19.5% | viability, T/C (second compound 3.16 µM, first compound 0.000316 µM): 81.1% | viability, T/C (second compound 3.16 µM, first compound 0.001 µM): 76.7% | viability, T/C (second compound 3.16 µM, first compound 0.00316 µM): 53.8% | viability, T/C (second compound 3.16 µM, first compound 0.01 µM): 45.9% | viability, T/C [19]: 25% | viability, T/C [20]: 9.11% | viability, T/C (second compound 10 µM, first compound 0.000316 µM): 0.21% | viability, T/C (second compound 10 µM, first compound 0.001 µM): 0.19% | viability, T/C (second compound 10 µM, first compound 0.00316 µM): 0.17% | viability, T/C (second compound 10 µM, first compound 0.01 µM): 0.14% | viability, T/C [25]: 0.14% | viability, T/C [26]: 0.19%

CC1OCC2(CCN(c3cnc(Sc4ccnc(N)c4Cl)c(N)n3)CC2)C1N (configuration not stated) + COc1cc2nc(C)nc(NC(C)c3cc(N)cc(C(F)(F)F)c3)c2cc1OC1CCOC1
pIC50 (second compound 0.1 µM): < 5.00 | pIC50 (second compound 0.316 µM): < 5.00 | pIC50 (second compound 1 µM): < 5.00 | pIC50 (second compound 3.16 µM): < 5.00 | pIC50 (second compound 10 µM): < 5.00 | viability, T/C [1]: 118% | viability, T/C [2]: 102% | viability, T/C [3]: 91.7% | viability, T/C [4]: 78.3% | viability, T/C [5]: 82.6% | viability, T/C [6]: 75.2% | viability, T/C [7]: 105% | viability, T/C [8]: 99.9% | viability, T/C [9]: 107% | viability, T/C [10]: 80% | viability, T/C [11]: 80.7% | viability, T/C [12]: 76.7% | viability, T/C [13]: 98.7% | viability, T/C [14]: 109% | viability, T/C [15]: 103% | viability, T/C [16]: 78.4% | viability, T/C [17]: 78.6% | viability, T/C [18]: 70.3% | viability, T/C [19]: 83.8% | viability, T/C [20]: 87.8% | viability, T/C [21]: 78.6% | viability, T/C [22]: 69.8% | viability, T/C [23]: 80% | viability, T/C [24]: 62.8% | viability, T/C [25]: 76.4% | viability, T/C [26]: 82.5% | viability, T/C [27]: 70.9% | viability, T/C [28]: 72% | viability, T/C [29]: 64.4% | viability, T/C [30]: 64.3%

COc1cc(Nc2ncc3c(n2)-c2ccc(Cl)cc2C(c2c(F)cccc2OC)=NC3)ccc1C(=O)O + C=CC(=O)N1CCN(c2nc(OCC3CCCN3C)nc3c2CCN(c2cccc4cccc(C)c24)C3)CC1CC#N
pIC50 (second compound 0.0316 µM): 7.05 | pIC50 (second compound 0.1 µM): 7.06 | pIC50 (second compound 0.316 µM): 7.05 | pIC50 (second compound 1 µM): 7.11 | pIC50 (second compound 3.16 µM): 7.46 | viability, T/C [31]: 84.6% | viability, T/C [32]: 41.6% | viability, T/C [33]: 30.3% | viability, T/C [34]: 27.5% | viability, T/C [35]: 17.7% | viability, T/C [36]: 9.36% | viability, T/C [1]: 82.4% | viability, T/C [2]: 40% | viability, T/C [3]: 31.1% | viability, T/C [4]: 27% | viability, T/C [5]: 16.2% | viability, T/C [6]: 8.9% | viability, T/C [7]: 79.4% | viability, T/C [8]: 40.6% | viability, T/C [9]: 32.7% | viability, T/C [10]: 24.5% | viability, T/C [11]: 17% | viability, T/C [12]: 7.34% | viability, T/C [13]: 73.5% | viability, T/C [14]: 37.5% | viability, T/C [15]: 32% | viability, T/C [16]: 25.9% | viability, T/C [17]: 16.4% | viability, T/C [18]: 8.35% | viability, T/C [19]: 53.9% | viability, T/C [20]: 22.1% | viability, T/C [21]: 19.8% | viability, T/C [22]: 17% | viability, T/C [23]: 6.88% | viability, T/C [24]: 1.67%

CC(C)n1nc(-c2ccc3oc(N)nc3c2)c2c(N)ncnc21
viability, T/C (compound 0.000316 µM): 107% [middle of 5 runs] | viability, T/C (compound 0.001 µM): 99.5% (2×) and 104% (2×) and 101% | viability, T/C (compound 0.00316 µM): 92.6% [middle of 5 runs] | viability, T/C (compound 0.01 µM): 63.2% [middle of 5 runs] | viability, T/C (compound 0.0316 µM): 33.3% [middle of 5 runs] | viability, T/C (compound 0.1 µM): 24.5% [middle of 5 runs] | IC50 (curve of compound): 18.9 nM [middle of 4 runs]
